Measured values published in patent US12269823B2, “Crystal form of pyridopyrimidine derivative and preparation method thereof” (JIANGSU HENGRUI MEDICINE CO., LTD., priority 2020, dated 2025).

What was measured:
[1] = target: T1, CYP3A4 (testosterone metabolic site) (Homo sapiens, UniProt P08684); assay: Inhibition of testosterone metabolic site on human liver microsome CYP3A4; assay type: in vitro ADME; conditions: human liver microsomes, testosterone probe
T1 construct: Human liver microsome (Corning Gentest); tissue Corning Gentest; host or cells: human liver microsomes
Protocol: Test example 4. Inhibitory effect of the compound disclosed herein on enzymatic activity of testosterone metabolic site on human liver microsome CYP3A4
The inhibitory effect of the compound disclosed herein on the enzymatic activity of the testosterone metabolic site on human liver microsome CYP3A4 was determined by the following procedures:
• 1. Phosphate buffered saline (PBS), • 2. NADPH (Sigma N-1630), • 3. Human liver microsome (Corning Gentest), • 4. ABI QTrap 4000 LC-MS/MS System (AB Sciex), • 5. Inertsil C8-3 column, 4.6×50 mm, 5 (Dikma, USA), • 6. CYP probe substrate (testosterone/100 μM, SIGMA K1003) and positive control inhibitor (ketoconazole, Dr. Ehrenstorfer GmbH, C17322500). II. Procedures
A 100 mM PBS buffer was prepared and was used to prepare a 2.5 mg/mL microsome solution and a 5 mM NADPH solution. A compound working solution at 5× concentration was serially diluted with PBS (150, 50, 15, 5, 1.5, 0.15, 0.015 and 0 μM). A ketoconazole working solution at 5× concentration was serially diluted with PBS (150, 50, 15, 5, 1.5, 0.15, 0.015 and 0 μM). A dextromethorphan working solution was diluted to 50 μM with PBS. […]
The IC50 values of the drug for testosterone metabolic site on CYP3A4 were calculated by Graphpad Prism and are shown in Table 1-4.

[2] = system: IL-12 secretion in peripheral blood mononuclear cells (PBMCs); assay: Stimulation of IL-12 secretion in PBMCs; assay type: cell-based, human; conditions: 24 h incubation
Protocol: Test example 5. Determination of the ability of the compound disclosed herein to stimulate IL-12 and IFNγ secretion in peripheral blood mononuclear cells (PBMCs) The ability of the compound disclosed herein to stimulate IL-12 and IFNγ secretion in PBMCs was determined by the following procedures:
• 1. RPMI 1640 (Invitrogen, 11875), • 2. FBS (Gibco, 10099-141), • 3. Ficoll-Paque PREMIUM (GE, 17-5442-02), • 4. Trypan blue solution (Sigma, T8154-100ML), • 5. SepMateTM-50 (Stemcell, 15460), • 6. Bright-Line™ cytometer (Sigma, Z359629-1EA), • 7. 96-well flat bottom plate (Corning, 3599), • 8. 96-well v-bottom plate (Corning, 3894), • 9. Human IL-12 ELISA kit (NEOBIOSCIENCE, EHC152.96), • 10. Human IFN γ kit (Cisbio, 62HIFNGPEG), • 11. PHERAStar Multi-Mode Microplate Reader (BMG, PHERAStar). II. Procedures […]
All reagents were equilibrated to room temperature. […] The cells were resuspended in RMPI 1640 culture medium containing 10% FBS, counted and adjusted to 3.33×10^6 cells/mL. […]
The reagents of the Human IL-12 detection kit was equilibrated to room temperature. […] Finally, a terminating solution was added to terminate the reaction, and the plate was detected for the absorbance at 450 nm using a microplate reader. […]
The ability of the compound disclosed herein to stimulate IL-12 and IFNγ secretion in PBMCs was determined by the above test and the MEC values obtained are shown in Table 1-5.

TLR7 = target: T2, TLR7 (Homo sapiens, UniProt Q9NYK1); conditions: background statement; cited from earlier work
T2 sequence (Q9NYK1 27-1049): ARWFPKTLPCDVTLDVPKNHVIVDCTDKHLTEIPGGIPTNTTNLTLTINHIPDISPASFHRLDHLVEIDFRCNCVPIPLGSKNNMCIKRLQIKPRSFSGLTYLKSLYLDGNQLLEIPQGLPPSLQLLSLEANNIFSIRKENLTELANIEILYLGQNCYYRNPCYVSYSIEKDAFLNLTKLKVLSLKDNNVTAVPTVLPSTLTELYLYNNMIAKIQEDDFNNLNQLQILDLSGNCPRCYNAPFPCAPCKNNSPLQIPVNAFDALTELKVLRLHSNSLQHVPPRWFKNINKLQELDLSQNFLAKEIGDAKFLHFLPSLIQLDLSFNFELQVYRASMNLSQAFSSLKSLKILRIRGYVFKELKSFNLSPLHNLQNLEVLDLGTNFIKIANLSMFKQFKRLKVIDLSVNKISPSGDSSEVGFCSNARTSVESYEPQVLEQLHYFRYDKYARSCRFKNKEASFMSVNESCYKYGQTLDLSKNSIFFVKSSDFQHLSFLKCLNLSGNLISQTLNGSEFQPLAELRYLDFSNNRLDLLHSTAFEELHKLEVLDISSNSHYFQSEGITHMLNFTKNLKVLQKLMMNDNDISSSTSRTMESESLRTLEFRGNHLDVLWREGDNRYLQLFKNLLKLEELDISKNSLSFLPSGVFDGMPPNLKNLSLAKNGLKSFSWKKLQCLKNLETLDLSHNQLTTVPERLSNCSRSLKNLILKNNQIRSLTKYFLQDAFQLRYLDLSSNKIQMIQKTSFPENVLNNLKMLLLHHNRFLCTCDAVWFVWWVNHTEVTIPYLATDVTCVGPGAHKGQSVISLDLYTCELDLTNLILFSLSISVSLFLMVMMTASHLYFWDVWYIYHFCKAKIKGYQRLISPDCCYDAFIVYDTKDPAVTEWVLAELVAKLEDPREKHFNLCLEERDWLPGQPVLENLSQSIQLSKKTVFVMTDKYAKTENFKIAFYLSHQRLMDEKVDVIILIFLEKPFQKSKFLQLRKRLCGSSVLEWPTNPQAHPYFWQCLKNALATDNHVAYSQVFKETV

Cyp and hERG = conditions: background statement; cited from earlier work
[3] = 30-day influencing factor stability test (heating, illumination, high humidity); assay type: physicochemical
Protocol: The crystalline form A and crystalline form B of the compound of formula (I) were transferred and let stand in clean open weighing bottles to test the stability under the conditions of heating (40° C., 60° C.), illumination (4500 1×±500 1×) and high humidity (90%±5%, 75%±5%) during an inspection period of 30 days.

[4] = Stability under long-term and accelerated conditions, 3 months; assay type: physicochemical
Protocol: The crystalline form B of the compound of formula (I) was examined for the stability under long-term (25° C., 60% RH) and accelerated (40° C., 75% RH) conditions in a period of 3 months.

T1 sequence (P08684 whole entry): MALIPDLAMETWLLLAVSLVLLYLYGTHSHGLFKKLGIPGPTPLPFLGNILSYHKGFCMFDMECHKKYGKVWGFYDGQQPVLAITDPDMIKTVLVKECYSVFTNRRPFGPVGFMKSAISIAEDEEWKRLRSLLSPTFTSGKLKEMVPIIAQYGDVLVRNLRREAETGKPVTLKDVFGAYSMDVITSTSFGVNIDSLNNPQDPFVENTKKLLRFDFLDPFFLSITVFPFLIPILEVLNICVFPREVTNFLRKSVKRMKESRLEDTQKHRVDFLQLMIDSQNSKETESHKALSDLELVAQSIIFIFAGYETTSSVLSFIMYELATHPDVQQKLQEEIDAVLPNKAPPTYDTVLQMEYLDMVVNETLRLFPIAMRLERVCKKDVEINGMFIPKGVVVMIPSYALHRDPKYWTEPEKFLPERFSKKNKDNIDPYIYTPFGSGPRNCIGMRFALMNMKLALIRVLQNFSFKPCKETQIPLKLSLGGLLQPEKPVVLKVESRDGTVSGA

Purity ([3]; 40° C., 5 days) | Purity ([3]; 40° C., 10 days) | Purity ([3]; 40° C., 30 days) | Purity ([3]; 60° C., 5 days) | Purity ([3]; 60° C., 10 days) | Purity ([3]; 60° C., 30 days) | Purity ([3]; 4500 lux, 5 days) | Purity ([3]; 4500 lux, 10 days) | Purity ([3]; 4500 lux, 30 days) | Purity ([3]; Initial, 0 days) | Purity ([3]; RH 75%, 5 days) | Purity ([3]; RH 75%, 10 days) | Purity ([3]; RH 75%, 30 days) | Purity ([3]; RH 90%, 5 days) | Purity ([3]; RH 90%, 10 days) | Purity ([3]; RH 90%, 30 days) | SMILES | Activity on TLR7 (in words) (TLR7) | Selectivity for Cyp and hERG (in words) (Cyp and hERG) | also measured
 |  |  |  |  |  |  |  |  |  |  |  |  |  |  |  | CCCC[C@](C)(CO)Nc1nc(N)nc2cc(-c3ccc(CN4CCN(C)CC4)nc3)cnc12 [Example 1, (R)-2-((2-amino-7-(6-((4-methylpiperazin-1-yl)methyl)pyridin-3-yl)pyrido[3,2-d]pyrimidin-4-yl)amino)-2-methylhexan-1-ol] |  |  | IC50 at 30 min [1]: > 30 µM; IL-12 MEC (minimum effective concentration) [2]: 41 nM
 |  |  |  |  |  |  |  |  |  |  |  |  |  |  |  | CCCN(CCC)C(=O)C1=Cc2ccc(-c3ccc(C(=O)N4CCCC4)cc3)cc2N=C(N)C1 [VTX-2337] | certain activity on TLR7 | poor selectivity for Cyp and hERG | 
 |  |  |  |  |  |  |  |  |  |  |  |  |  |  |  | CCCC[C@](C)(CO)Nc1nc(N)nc2cc(F)cnc12 [GS-9688] | certain activity on TLR7 | poor selectivity for Cyp and hERG | 
96.98% | 96.98% | 95.47% | 95.87% | 95.72% | 93.74% | 95.82% | 94.99% | 92.51% | 97.83% | 97.83% | 97.85% | 97.47% | 97.91% | 97.84% | 97.53% | CCCC[C@](C)(CO)Nc1nc(N)nc2cc(-c3ccc(CN4CCN(C)CC4)nc3)cnc12 [crystalline form A] |  |  | 
98.19% | 98.17% | 97.23% | 97.87% | 97.53% | 96.24% | 95.48% | 92.61% | 88.03% | 98.65% | 98.65% | 98.69% | 97.96% | 98.69% | 98.75% | 97.99% | CCCC[C@](C)(CO)Nc1nc(N)nc2cc(-c3ccc(CN4CCN(C)CC4)nc3)cnc12 [crystalline form B] |  |  | Physical and chemical stability (in words) ([4]; 3 months, long-term (25° C., 60% RH) and accelerated (40° C., 75% RH)): good physical and chemical stabilities; Purity ([4]; 25° C., 60% RH, Initial): 99.71%; Purity ([4]; 25° C., 60% RH, Month 1): 99.70%; Purity ([4]; 25° C., 60% RH, Month 2): 99.71%; Purity ([4]; 25° C., 60% RH, Month 3): 99.62%; Purity ([4]; 40° C., 75% RH, Initial): 99.71%; Purity ([4]; 40° C., 75% RH, Month 1): 99.69%; Purity ([4]; 40° C., 75% RH, Month 2): 99.68%; Purity ([4]; 40° C., 75% RH, Month 3): 99.54%
